Values quoted from earlier work as cited in US20260237528A1, “DRUG COMBINATIONS SCREENING” (Hoffmann-La Roche Inc., priority 2023, published 2026).

Tested on: tumour growth
Details: tested alone

| Structure (SMILES) | anti-tumour activity |
| --- | --- |
| CN(C)CCCN1c2ccccc2Sc2ccc(Cl)cc21 [chlorpromazine] | Neither of these drugs showed any anti-tumour activity when tested alone |
| N=C(N)c1ccc(OCCCCCOc2ccc(C(=N)N)cc2)cc1 [pentamidine] | Neither of these drugs showed any anti-tumour activity when tested alone |
